Source: article PMC11257039, “VCP activator reverses nuclear proteostasis defects and enhances TDP-43 aggregate clearance in multisystem proteinopathy models” (The Journal of Clinical Investigation, 2024)
Values joined by “and” are separate entries in the source; they are usually repeats but may differ in a detail not shown here. Identical values can stand only once.

Target: T1, WT VCP + Ufd1/Nploc4 (Mus musculus, UniProt Q01853)
T1 construct: in the full-length recombinant VCP; His (N); made in house; host or cells: E. coli (VCP: BL21-CodonPlus (DE3)-RIL; UFD1 and NPLOC4: E. coli (DE3), purified by the MD Anderson core)
T1 sequence (Q01853 whole entry): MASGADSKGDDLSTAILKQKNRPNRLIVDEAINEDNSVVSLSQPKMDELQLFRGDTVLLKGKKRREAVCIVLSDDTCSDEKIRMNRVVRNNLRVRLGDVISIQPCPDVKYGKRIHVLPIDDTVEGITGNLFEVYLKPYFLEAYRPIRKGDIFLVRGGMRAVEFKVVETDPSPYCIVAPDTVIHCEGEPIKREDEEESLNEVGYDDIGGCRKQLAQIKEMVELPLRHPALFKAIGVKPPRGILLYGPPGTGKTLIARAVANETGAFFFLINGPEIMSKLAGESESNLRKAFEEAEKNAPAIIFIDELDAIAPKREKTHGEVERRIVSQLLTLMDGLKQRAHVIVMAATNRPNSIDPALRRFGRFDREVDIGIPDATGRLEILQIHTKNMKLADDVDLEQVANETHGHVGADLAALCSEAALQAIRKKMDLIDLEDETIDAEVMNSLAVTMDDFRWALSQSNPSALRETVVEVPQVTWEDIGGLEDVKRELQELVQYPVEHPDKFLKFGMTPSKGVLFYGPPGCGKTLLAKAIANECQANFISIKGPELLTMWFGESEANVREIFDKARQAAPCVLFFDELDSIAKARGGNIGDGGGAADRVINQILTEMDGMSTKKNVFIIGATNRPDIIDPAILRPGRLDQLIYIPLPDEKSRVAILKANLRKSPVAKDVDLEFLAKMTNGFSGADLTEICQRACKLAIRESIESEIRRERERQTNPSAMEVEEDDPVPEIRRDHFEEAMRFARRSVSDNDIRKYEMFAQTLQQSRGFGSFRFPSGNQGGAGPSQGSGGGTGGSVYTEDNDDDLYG
T1 sequence (Q92890 whole entry partner): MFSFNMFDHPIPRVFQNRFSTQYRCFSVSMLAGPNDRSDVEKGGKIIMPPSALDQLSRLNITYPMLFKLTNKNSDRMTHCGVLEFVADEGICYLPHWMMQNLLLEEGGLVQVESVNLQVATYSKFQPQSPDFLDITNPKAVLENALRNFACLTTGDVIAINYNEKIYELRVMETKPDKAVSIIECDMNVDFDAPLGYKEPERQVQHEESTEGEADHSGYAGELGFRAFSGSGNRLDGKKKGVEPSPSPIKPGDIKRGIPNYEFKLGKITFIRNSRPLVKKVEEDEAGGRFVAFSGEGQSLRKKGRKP
T1 sequence (Q8TAT6 whole entry partner): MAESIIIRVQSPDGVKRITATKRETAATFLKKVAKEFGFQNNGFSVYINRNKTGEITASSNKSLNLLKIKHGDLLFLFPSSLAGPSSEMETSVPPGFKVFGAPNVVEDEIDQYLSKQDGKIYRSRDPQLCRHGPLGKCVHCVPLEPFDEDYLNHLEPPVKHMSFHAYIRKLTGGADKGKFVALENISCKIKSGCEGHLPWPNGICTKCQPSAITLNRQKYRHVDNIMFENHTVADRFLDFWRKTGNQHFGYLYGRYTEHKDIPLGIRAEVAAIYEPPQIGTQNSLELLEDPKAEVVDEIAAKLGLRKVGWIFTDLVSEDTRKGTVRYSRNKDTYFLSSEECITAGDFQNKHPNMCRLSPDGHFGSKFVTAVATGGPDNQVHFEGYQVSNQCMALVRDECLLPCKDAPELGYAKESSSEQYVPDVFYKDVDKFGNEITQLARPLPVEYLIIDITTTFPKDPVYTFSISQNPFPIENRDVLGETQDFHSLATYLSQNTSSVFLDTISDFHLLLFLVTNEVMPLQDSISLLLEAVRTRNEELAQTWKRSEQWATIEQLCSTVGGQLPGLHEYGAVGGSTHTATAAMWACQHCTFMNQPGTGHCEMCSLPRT
Assay: Kinase-Glo ATPase assay, WT VCP with UFD1/NPLOC4 (UN)
Type: biochemical
Details: for ATP consumed: WT VCP with UN
Procedure, shortened: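 Mouse VCP (50 nM), alone or with 50 nM UFD1/NPLOC4, was incubated 1 h at 25 °C with 62.5 μM ATP and a range of compound concentrations in HEPES pH 7.5, 100 mM NaCl, 10 mM MgCl2, 2% DMSO. Remaining ATP was read by Kinase-Glo luminescence. Dose data were fit to a 3-parameter curve; ATP-varied data were fit to Michaelis-Menten.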

For `COCCNC(=O)NC(=O)COC(=O)c1cc([N+](=O)[O-])ccc1Sc1nc(C)cs1` [UP109], the “change in EC50 with UN compared to without UN” value was “non-significant decreases”, the “change in maximum percent activity with UN compared to without UN” value was “significantly decreased” and the EC50 (WT VCP + Ufd1/Nploc4, 1:1 molar ratio) was 13.4 µM. The “ATP consumed” value (1.56 μM compound) was 1.207 nmol and 1.374 nmol and 1.037 nmol, the “ATP consumed” value (3.13 μM compound) was 1.252 nmol and 1.505 nmol and 1.198 nmol and the “ATP consumed” value (6.25 μM compound) was 1.448 nmol and 1.727 nmol and 1.392 nmol. For the same molecule, the “ATP consumed” value (12.5 μM compound) was 1.655 nmol and 1.932 nmol and 1.557 nmol, the “ATP consumed” value (25 μM compound) was 1.893 nmol and 2.050 nmol and 1.818 nmol and the “ATP consumed” value (50 μM compound) was 2.078 nmol and 2.217 nmol and 1.927 nmol. For the same molecule, the “ATP consumed” value (100 μM compound) was 2.107 nmol and 2.355 nmol and 2.018 nmol and the “ATP consumed” value (200 μM compound) was 1.978 nmol and 2.301 nmol and 2.081 nmol.
